Experimental data reported in US20240307283A1, “COMPOSITIONS AND METHODS FOR DECREASING PIGMENTATION” (The General Hospital Corporation, priority 2021, published 2024).
Peptide text beside a SMILES is read from it. * marks the point of attachment. Cbz = O=C(OCc1ccccc1)*

Key:
[1] = test system: mouse melan-A melanocytes; experiment: In vitro depigmentation of melan-A melanocytes; assay type: cell-based; conditions: 2 uM or 10 uM, DMSO-based carrier, 1-5 days (average 1.5 days), FIG. 12B
Method: Murine Melan-A (Bennett et al., 1987) cells were obtained from the Wellcome Trust Functional Genomics Cell Bank. Melan-A cells were grown in RPMI 1640 supplemented with 10% FBS or FetalPlex (Gemini Bio-Products, #100-602), 100,000 U/L penicillin, 100 mg/L streptomycin sulphate, 100× Glutamax, and 200 nM TPA.
(§1) The ability of 2 uM or 10 uM ASS, Usnic acid, 4-hexylresorcinol, candesartan, Nigericin, and Ginkgolic acid to depigment was evaluated in mouse B16 melanoma cells and melan-A melanocytes. A DMSO-based carrier solution was used, and the experiments carried out for 1-5 days, with an average of 1.5 days. 4-n-Butylresorcinol, N-Acetylcystein (NAC), and Phenylthiourea (PTU), were used as a positive control, and DMSO as a negative control.

[2] = test system: human skin explants (Fitzpatrick skin type 2); experiment: Prevention of UVB-driven pigmentation in human skin explants; assay type: cell-based; conditions: UVB 150 mJ/cm^2
Method: (§2) Skin samples considered surgical waste were obtained de-identified from healthy donors (IRB #2013P000093) undergoing reconstructive surgery, according to institutional regulations. Full thickness human abdominal skin explants were cultured in petri dishes with a solid phase and liquid phase phenol red free DMEM medium containing 20% penicillin/streptomycin/glutamine, 5% fungizone (Gibco), and 10% fetal bovine serum. Compounds were applied strictly on top of the explants, making sure no drip occurred into the underlying media. For UV irradiation experiments, a UV lamp (UV Products) was used at 1000 mJ/cm^2 UVB.
The ability of a number of NNT activators to prevent UVB-driven pigmentation of skin was evaluated in human skin explants (Fitzpatrick skin type 2) with application of UVB 150 mJ/cm^2. […]

human skin explants = experiment: Depigmentation of human skin explants by NNT activators; assay type: cell-based; conditions: for ability to depigment skin: after 36 hours, FIGS. 13A-B; for ability to depigment skin / Dose needed to depigment within 36 h (skin type 2): DMSO-based carrier; for Dose needed to depigment within 36 h (skin type 2): single dose or lower end of the dose range
Method: as §2
The ability of ASS, Usnic acid, 4-hexylresorcinol, candesartan, Nigericin, elaidylphosphocholine, hexitidine, naproxol, and Ginkgolic acid to depigment skin was tested in human skin explants. A DMSO-based carrier solution was used. DMSO was used as a negative control. […]

mouse B16 melanoma cells = experiment: In vitro depigmentation of B16 melanoma cells; assay type: cell-based; conditions: 2 uM or 10 uM, DMSO-based carrier, 1-5 days (average 1.5 days), FIG. 12A
Method: as §1

tyrosinase = experiment: Cycloheximide chase assay of tyrosinase protein stability; assay type: cell-based, human; conditions: UACC257, 10 μM for 6 h, then CHX
Method: Cycloheximide chase assay: 72 h after siRNA transfection (sicontrol or siNNT), UACC257 melanoma cells were treated with a protein synthesis inhibitor, cyclohexamide (CHX, Sigma Aldrich #C7698, 50 μg/ml), for the indicated times and then immediately subjected to immunoblotting for tyrosinase protein expression. The expression of tyrosinase was quantified using ImageJ software based on band intensities and normalized to the intensities of the corresponding β-actin bands. The normalized tyrosinase expression was then defined as relative tyrosinase expression by setting the mean values at t=0 in each experimental group to 1.0. […] The siRNA-transfected cells were cultured for an additional 48 h in the presence of these agents and then examined by the CHX chase assay as described above. pLJM-1-EGFP or pLJM1-NNT/FLAG was introduced into UACC257 cells using Lipofectamine 3000, 48 after transfection, the transfection medium was replaced with fresh medium containing DMSO or 10 μM MG132 (Sigma Aldrich #M8699) and pre-incubated for 6 h. Then. CHX was added to assess tyrosinase protein stability as described above.

| Structure (SMILES) | ability to depigment [1] | Dose needed to inhibit UVB-induced tanning (skin type 2) [2] | ability to depigment skin (human skin explants) | Dose needed to depigment within 36 h (skin type 2) (human skin explants; human skin explants) | ability to depigment (mouse B16 melanoma cells) | lightening by Fontana Masson and H&E staining (human skin explants; FIG. 13C) | nuclear capping (human skin explants; FIG. 13C) | Dose needed to depigment within 36 h (skin type 2), result in words (human skin explants; human skin explants) | tyrosinase protein stability in NNT-overexpressing cells (tyrosinase) |
| --- | --- | --- | --- | --- | --- | --- | --- | --- | --- |
| CCCCCCc1ccc(O)cc1O [4-hexylresorcinol] | depigmenting effects | 1000 µM | depigmenting effects | 5 µM | depigmenting effects | – | – | – | – |
| CC(=O)Oc1ccccc1C(=O)O [ASS, Acetylsalicylic Acid] | depigmenting effects | 10 µM | depigmenting effects | ≥ 5 µM | depigmenting effects | – | – | – | – |
| CCCCCC/C=C\CCCCCCCc1cccc(O)c1C(=O)O [Ginkgolic acid] | depigmenting effects | 100 µM | depigmenting effects | ~50 µM | depigmenting effects | displayed lightening effects | Nuclear capping was present | n.s. | – |
| CC(C)C[C@@H](C=O)NC(=O)[C@H](CC(C)C)NC(=O)[C@H](CC(C)C)NC(=O)OCc1ccccc1 [MG132, carbobenzoxy-L-leucyl-L-leucyl-L-leucinal] (Cbz-Leu-Leu-Leu-aldehyde) | – | – | – | – | – | – | – | – | prevented an NNT overexpression-induced decrease in Tyrosinase protein stability |
| CO[C@@H]1C[C@@H](C[C@H]2CC[C@H](C)[C@H]([C@@H](C)C(=O)O)O2)O[C@]2(O[C@](C)([C@H]3CC[C@@](C)([C@@H]4O[C@@H]([C@H]5O[C@@](O)(CO)[C@H](C)C[C@@H]5C)C[C@@H]4C)O3)C[C@H]2C)[C@@H]1C [Nigericin] | depigmenting effects | 10 to 100 µM | depigmenting effects | 5 µM | depigmenting effects | – | – | – | – |
| CC(=O)c1c(O)c(C)c(O)c2c1OC1=CC(=O)C(C(C)=O)C(=O)C12C (centres unmarked) [Usnic acid, usnic acid] | – | 100 µM | – | ≥ 5 µM | – | – | – | – | – |
| CCOc1nc2cccc(C(=O)O)c2n1Cc1ccc(-c2ccccc2-c2nnn[nH]2)cc1 [candesartan, 1-((2′-(1H-Tetrazol-5-yl)-[1,1′-biphenyl]-4-yl)methyl)-2-ethoxy-1H-benzo[d]imidazole-7-carboxylic acid] | depigmenting effects | 1000 to 10000 µM | depigmenting effects | ≥ 50 µM | depigmenting effects | – | – | – | – |
| CCCCCCCC/C=C/CCCCCCCCOP(=O)([O-])OCC[N+](C)(C)C [elaidylphosphocholine, [(E)-octadec-9-eny] 2-(trimethylazaniumyl)ethyl phosphate] | – | – | depigmenting effects | – | – | – | – | – | – |
